Experimental data published in the Bradley open melting point set (2014).

| melting point [°C] | SMILES |
| --- | --- |
| 310 | CC(=O)N(C1=NC(=O)/C(=C/c2cc(C)n(-c3ccc(C(F)(F)F)cc3)c2C)S1)c1ccccc1 [OSM-S-45] |
| -121 | CCCCC(C)CC (stereo unspecified) [3-methylheptane] |
| 136 | CCOC(=O)c1cc(-c2ccco2)n[nH]1 [ethyl 3-(2-furyl)-1h-pyrazole-5-carboxylate] |
| -35 | NCCNCCN [N-(2-Aminoethyl)ethane-1,2-diamine] |
| 256 | C[C@@H](O)[C@H](N)C(=O)O [L-Threonine] |
| 159 | O=C[C@H](O)[C@@H](O)[C@@H](O)CO (racemic) [dl-arabinose] |
| -83 | CCCN [1-propylamine] |
| 244 | C=C1/C(=N/Nc2cc(Cl)c(Cl)cc2Cl)C(=O)N(C)C(=O)N1C |
| 67 | CN(C)c1ccc(N=C=S)cc1 [4-dimethylaminophenyl isothiocyanate] |
| 118 | O=C(O)CNc1ccccc1 [N-phenylglycine] |
| 115 | CC(=O)Nc1ccccc1 [N-Phenylacetamide] |
| 39 | COC(=O)CC(N)=O [methyl malonamate] |
| -60 | CCCCNCCCC [N-Butylbutan-1-amine] |
| -27 | OCCc1ccccc1 [2-phenylethanol] |
| 130 | O=C(CCc1ccccc1)/C(=N/O)c1ccccc1 [(1E)-1,4-diphenylbutane-1,2-dione 1-oxime] |
| 115 | CC(C)(C)C(N)=S [2,2,2-trimethylthioacetamide] |
| 61 | OC1COC2C(O)COC12 (stereo unspecified) [1,4:3,6-dianhydrohexitol] |
| 85 | Cc1nc(C)c(C)nc1C [Tetramethylpyrazine] |
| 55 | COc1cccc(OC)c1O [2,6-dimethoxyphenol] |

| melting point [°C] | SMILES |
| --- | --- |
| 28 | Cc1ccc(C#N)cc1 [p-tolunitrile] |
| 144 | C#C[C@]1(O)CC[C@H]2[C@@H]3CCc4cc(O)ccc4[C@H]3CC[C@@]21C [17alpha-ethynylestradiol] |
| -142 | CC1=CCCC1 [1-methylcyclopentene] |
| 56 | CCCc1cc(Br)c(N)c(Br)c1 [2,6-dibromo-4-n-propylaniline] |
| 51 | COc1cc(N=C=S)cc(OC)c1 [3,5-dimethoxyphenyl isothiocyanate] |
| 59 | O=C(O)CCCCc1ccccc1 [5-phenylvaleric acid] |
| 127 | O=C(O)CCCCCCCCCCCCCCCCCCC(=O)O [1,18-octadecanedicarboxylic acid] |
| 31.5 | O=C(O)C1CCCCC1 [cyclohexanecarboxylic acid] |
| -115 | CO[SiH](OC)OC [Trimethoxysilane] |
| 171 | NNC(=O)c1ccc([N+](=O)[O-])o1 [5-nitro-2-furohydrazide] |
| 154 | NNC(=O)CC(=O)NN [malonic acid dihydrazide] |
| 160 | O=C(O)[C@@H]1[C@@H]2CC[C@@H](C2)[C@@H]1C(=O)O [(1R,2R,3S,4S)-Bicyclo[2.2.1]heptane-2,3-dicarboxylic acid] |
| 95 | CC(C)(C)OC(=O)N[C@@H](CO)Cc1ccccc1 [N-boc-D-phenylalaninol] |
| 208 | O=C(O)c1ccc(Cl)c(Cl)c1 [3,4-Dichlorobenzoic acid] |
| 129 | O=C(O)Cc1ccc(O)c(O)c1 [3,4-dihydroxyphenylacetic acid] |
| 221 | CC(CCC(=O)O)C1CCC2C3C(O)CC4CC(O)CCC4(C)C3CC(=O)C12C (stereo unspecified) [3,7-dihydroxy-12-oxocholan-24-oic acid] |
| -25 | CCN(O)CC [N,N-diethylhydroxylamine] |
| 140 | CC(=O)Nc1ccc(C(C)=O)cc1Br [4'-acetamido-3'-bromoacetophenone] |
| 34 | CC(=O)c1ccc(Cl)cc1Cl [2,4-dichloroacetophenone] |

The remaining lines, values behind:

| SMILES | melting point [°C] |
| --- | --- |
| Nc1cccc(N)c1 [m-phenylenediamine] | 65 |
| Cl[C@H]1[C@H](Cl)[C@@H](Cl)[C@@H](Cl)[C@H](Cl)[C@H]1Cl [g-bhc(lindane)] | 112 |
| O=C(Nc1ccccc1)Nc1ccccc1 [1,3-DIPHENYLUREA] | 232 |
| C[C@]12CC[C@H](O)CC1=CC[C@@H]1[C@@H]2CC[C@]2(C)C(=O)CC[C@@H]12 [3-Beta-Hydroxy-5-Androsten-17-One] | 140 |
| Nc1ccc([N+](=O)[O-])cc1[N+](=O)[O-] [2,4-dinitroaniline] | 177 |
| C/C=C\C#N [Z-crotononitrile] | -72.6 |
| O=C(Nc1ccccc1)c1ccccc1 [benzanilide] | 164 |
| O=C(O)c1c(F)c(F)c(F)c(F)c1F [pentafluorobenzoic acid] | 102 |
| Nc1ccc(S(=O)(=O)Nc2nccs2)cc1 [sulfathiazole] | 202 |
| Nc1ccc2c(c1)C(=O)c1ccccc1C2=O [2-Amino-9,10-anthraquinone] | 295 |
| CC(C)(C)c1ccc2oc(-c3ccc(-c4nc5cc(C(C)(C)C)ccc5o4)s3)nc2c1 [2,5-bis(5-tert-butyl-2-benzoxazolyl)thiophene] | 201 |
| CCC(C)=O [2-butanone] | -87 |
| OB(O)c1ccc(F)c(Cl)c1 [3-chloro-4-fluorobenzeneboronic acid] | 258 |
| CC(=O)C(C)(C)C [3,3-Dimethylbutan-2-one] | -52.5 |
| C=CCC1(CC(C)C)C(=O)NC(=O)NC1=O [BUTALBITAL] | 138 |
| O=C5\C=C3/[C@]([C@H]2CC[C@@]4([C@@H](OC(=O)CCc1ccccc1)CC[C@H]4[C@@H]2CC3)C)(C)CC5 [testosterone phenylpropionate] | 116 |
| N#Cc1cccc([N+](=O)[O-])c1 [m-nitrobenzonitrile] | 117 |

| SMILES | melting point [°C] |
| --- | --- |
| CCC1(CCC(C)C)C(=O)NC(=O)NC1=O [amobarbital] | 156 |
| O=[N+]([O-])c1cccc(F)c1 [1-fluoro-3-nitrobenzene] | 2 |
| CCC(C)C(C)(COC(N)=O)COC(N)=O (stereo unspecified) [mebutamate] | 77 |
| Cc1nc2ccccc2c(=O)n1-c1ccccc1Cl [mecloqualone] | 126 |
| Oc1ccc(Cl)c(Cl)c1 [3,4-dichlorophenol] | 67 |
| CCCCc1ccccc1 [N-Butylbenzene] | -87.9 |
| ICCI [1,2-diiodoethane] | 82 |
| Brc1ccccc1I [1-bromo-2-iodobenzene] | 10 |
| COc1cc(C=O)cc(OC)c1OC [3,4,5-trimethoxybenzaldehyde] | 75 |
| CCC(=O)C(C[C@H](C)N(C)C)(c1ccccc1)c1ccccc1 [methadone] | 102 |
| Clc1cccc2ccccc12 [1-chloronaphthalene] | -20 |
| Nc1cnc2ccccc2c1 [3-aminoquinoline] | 94 |
| O=C1C(Cl)=CC(=NCl)C=C1Cl [2,6-Dichloro-4-(chloroimino)cyclohexa-2,5-dien-1-one] | 67 |
| CCCC(C)C1(CC)C(=O)NC(=O)NC1=O (stereo unspecified) [pentobarbital] | 130 |
| O=C1c2ccccc2C(=O)N1CBr [N-(bromomethyl)phthalimide] | 147 |
| O=C1c2c(O)cccc2Cc2cccc(O)c21 [1,8-Dihydroxyanthracen-9(10H)-one] | 181 |
